From patent US20100120737A1, “Amorphous ciclesonide” (priority 2008, published 2010)
Converted amounts (≈) assume the structure as drawn.

Tests used:
Type in all cases: physicochemical
Hygroscopicity = test: Hygroscopicity
[1] = Saturation solubility experiments; details: water, 24 hours stirring after ultrasonic treatment
Method: Defined amounts of in each case about 14 to 25 mg of X-ray amorphous or crystalline ciclesonide were weighed into a conical Erlenmeyer flask equipped with a rubber stopper (n=3). 100 ml of water (Millipore quality. ELIX 3. Gradient A 10, pH 5.92-6.00) were added and 30 minutes of ultrasonic treatment was applied to the samples. Afterwards the samples were stirred in the dark for 24 hours at 37° C. in a water bath. After the desired stirring time, each sample was filtered through a 0.2 μm membrane filter (Schleicher & Schuell, RC 0.2 μm Spartan 30/A) and concentrated on a Sep-Pak cartridge (Waters Sep-Pak cartridge C18, WAT051910). Then the cartridge was eluted with ethanol (gradient grade, Merck). The ciclesonide in the ethanol solution was then quantified by HPLC (LaChrom®-HPLC System Series 7000, column: Zorbax SB phenyl, eluent: water/ethanol 38%: 62% (v/v) isocratic, column temperature: 60° C., injection volume: 50 μL, UV-detection at 243 nm) against an external standard.

[2] = Dissolution experiments (dissolution kinetics in water)
Method: For each timepoint (5 min, 10 min, 20 min, 35 min, 60 min and 1440 min) of the dissolution experiment, three samples each of X-ray amorphous and crystalline ciclesonide were prepared by weighing a defined amount of in each case about 15 mg into a 250 ml conical wide-necked Erlenmeyer flask and stirring (850 rpm, glass coated magnetic stir bar, having a length of 2.4 cm and a diameter of 0.59 cm) the samples at 37° C. in 100 ml water (Millipore quality, ELIX 3, Gradient A 10, pH 5.92-6.00). The moment of the addition of water was defined as t0. The tempering of the samples was performed using an air bath. After the desired stirring time, the complete samples were filtered through a 0.2 μm membrane filter (Schleicher & Schuell, RC 0.2 μm Spartan 30/A) and concentrated on a Sep-Pak cartridge (Waters Sep-Pak cartridge C18, WAT051910). The cartridge was then eluted with ethanol (gradient grade, Merck). The ciclesonide in the ethanol solution was then quantified by HPLC (LaChrom®-HPLC System Series 7000, column: Zorbax SB phenyl, eluent: water/ethanol 38%: 62% (v/v) isocratic, column temperature: 60° C., injection volume: 50 μL, UV-detection at 243 nm) against an external standard.

[3] = Stability under elevated pressure (recrystallization); details: pressure of up to 2.500 for 5 min
Description: Such a stability against pressure is particularly desirable when a pharmaceutical agent is used for preparation of solid pharmaceutical compositions such as tablets or granules.

Row | SMILES | hygroscopicity (Hygroscopicity) | saturation solubility ([1]; 37° C.) [µg/mL] | concentration of dissolved ingredient after 20 minutes ([2]; 37° C., after 20 minutes) [ng/mL] | concentration of dissolved ciclesonide after 24 hours ([2]; 37° C., after 24 hours) [ng/mL] | concentration of dissolved ingredient within 5 minutes ([2]; 37° C., within 5 minutes) [ng/mL] | concentration of dissolved ingredient relative to crystalline ciclesonide after 1 hour ([2]; after 1 hour, amorphous vs crystalline) | recrystallization under pressure [3] | solubility at 24 h ([1]; 37 °C, pH 6, water, thermodynamic from solid) [µg/mL] | solubility at 1 h ([2]; pH 6, thermodynamic from solid, 37° C., after 1 hour) [µg/mL]
1 | CC(C)C(=O)OCC(=O)[C@@]12OC(C3CCCCC3)O[C@@H]1CC1[C@@H]3CCC4=CC(=O)C=C[C@]4(C)[C@H]3[C@@H](O)C[C@@]12C (stereo partly drawn) [amorphous ciclesonide, 16,17-[(Cyclohexyl-methylene)bis(oxy)]-11-hydroxy-21-(2-methyl-1-oxopropoxy)-pregna-1,4-diene-3,20-dione[11β,16α]] | not hygroscopic | 0.0916 ± 0.0052 | 340 | 105 | 290 | about sevenfold | did not show any signs of recrystallization |  | 
2 | CC(C)C(=O)OCC(=O)[C@@]12OC(C3CCCCC3)O[C@@H]1CC1[C@@H]3CCC4=CC(=O)C=C[C@]4(C)[C@H]3[C@@H](O)C[C@@]12C (stereo partly drawn) [crystalline ciclesonide, 16,17-[(Cyclohexyl-methylene)bis(oxy)]-11-hydroxy-21-(2-methyl-1-oxopropoxy)-pregna-1,4-diene-3,20-dione[11β,16α], reference compound] |  |  |  |  |  |  |  | ~0.091 (≈ 0.168 µM) | ~0.05 (≈ 0.0925 µM)
